# Experimental data as given in ChEMBL document CHEMBL4765335, “Privileged scaffold-based design to identify a novel drug-like 5-HT receptor-preferring agonist to target Fragile X syndrome” (Eur J Med Chem, 2020).
# Experiment: in vitro
# Settings: rat, liver microsomes
row,SMILES,"remaining at 0.5 h, 10 µM"
1,COc1ccc(-c2ccccc2N2CCN(CCCCOc3ccccc3C#N)CC2)cc1,7%
2,COc1ccc(-c2ccccc2C2CCN(CCCCOc3cnccn3)CC2)cc1,6%
3,COc1ccc(-c2ccccc2N2CCN(C[C@@H](O)COc3ccc(-c4cn5ccccc5n4)cc3)CC2)cc1,48%
